The values below are quoted from earlier work in patent US8329914B2, “Cyclic benzimidazole derivatives useful as anti-diabetic agents” (Merck Sharp & Dohme Corp, priority 2008, dated 2012).

In this series the test system is ob/ob and db/db mice. As to conditions: following 8 weeks of administration; cited from earlier work.

Consider `NC(=O)c1ncn([C@@H]2O[C@H](CO)[C@@H](O)[C@H]2O)c1N` [AICAR], for which the blood glucose reduction is 35%.
